Measurements: the supplement of paper PMC10702517
± gives the standard deviation.

Experiments:
[1] = chemical recovery by SPE of plasma after PDMS sampling; higher = better extraction; details: pooled human plasma, extraction method: HLB SPE of plasma after PES
[2] = chemical recovery from spiked human plasma; higher = better extraction; details: pooled human plasma
[3] = extraction method: SPE only (HLB 96-well), PES comparison experiment
[4] = extraction method: solvent precipitation (ACN + hexane)
[5] = extraction method: PES+SPE (3 d PDMS equilibration then HLB SPE)
[6] = extraction method: SPE only (HLB 96-well)
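For chemical recovery by SPE of plasma after PDMS sampling in this document: over 400 spiked chemicals quantified by LC-HRMS or GC-HRMS via internal standard calibration, recovery relative to spike mix added to unspiked plasma extract to correct matrix effects.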

SMILES | chemical recovery by SPE of plasma ([1]; equilibration time (d): 3) | chemical recovery by SPE of plasma ([1]; equilibration time (d): 6) | chemical recovery [2, 3] | chemical recovery by SPE of plasma ([1]; equilibration time (d): 1) | chemical recovery [2, 4] | chemical recovery [2, 5] | chemical recovery [2, 6]
NC(=O)c1c(Cl)c(Cl)cc(C(=O)O)c1Cl | 49.6 ± 1.4% | 45.4 ± 6.4% | 52.8 ± 4.5% |  | 65.4 ± 4.9% | 25.4 ± 4.9% | 30.6 ± 4.5%
Oc1ccc(Cl)cc1Cl [2,4-Dichlorophenol] | 56.9 ± 4.3% | 50.9 ± 3.1% | 54.2 ± 5.9% | 49.3 ± 11% |  | 43.4 ± 3.3% | 40.3 ± 3.3%
O=[N+]([O-])c1ccc(O)c([N+](=O)[O-])c1 [2,4-Dinitrophenol] | 52 ± 3% | 50.9 ± 4.5% | 59.8 ± 4.8% | 49.4 ± 8.9% | 79.6 ± 6.8% | 52.7 ± 7.5% | 48.7 ± 6.6%
Oc1ccccc1-c1ccccc1 [2-Phenylphenol] | 3.47 ± 0.42% | 3.11 ± 1.4% |  | 4.5 ± 4% |  |  | 19.9 ± 4.2%
Nc1ccc(Sc2ccc(N)cc2)cc1 [4,4'-Thiodianiline] | 10.6 ± 2.5% | 7.77 ± 1.4% | 16.5 ± 2% | 11.7 ± 2.8% | 42.1 ± 9.6% | 1.15 ± 0.088% | 8.97 ± 1.9%
Oc1ccc(Cl)cc1 [4-Chlorophenol] | 66.4 ± 6.9% | 59.4 ± 4.3% | 60.1 ± 5.1% | 60 ± 12% | 98 ± 9.7% | 33.9 ± 11% | 35.2 ± 7.2%
O=c1cc(O)c2ccccc2o1 [4-Hydroxycoumarin] | 64.3 ± 4.7% | 78 ± 15% | 13.2 ± 3.1% | 69.3 ± 16% |  |  | 
CCC(=C(c1ccc(O)cc1)c1ccc(OCCN(C)C)cc1)c1ccccc1 [4-Hydroxytamoxifen] | 7.29 ± 0.7% | 3.71 ± 1.9% | 42.6 ± 12% | 13.5 ± 3.3% | 62.1 ± 1.3% | 11.4 ± 2.5% | 46.8 ± 8.9%
O=[N+]([O-])c1ccc(O)cc1 [4-Nitrophenol] | 59.3 ± 2.9% | 55.1 ± 4.6% | 64.5 ± 4.6% | 57.4 ± 7.2% | 65.1 ± 6.7% | 48.9 ± 3% | 41.5 ± 6.3%
C[C@H]1C[C@@H]2[C@H]([C@@H](O)C[C@@]3(C)[C@H]2CC[C@]3(O)C(=O)CO)[C@@]2(C)C=CC(=O)C=C12 [6alpha Methylprednisolone] | 57.1 ± 4.7% | 51.1 ± 6.5% | 53.6 ± 7.5% | 59.2 ± 5.8% |  |  | 
C=Cc1c2ccccc2cc2ccccc12 [9-Vinylanthracene] | 3.05 ± 5.3% | 2.42 ± 4.2% |  | 3.04 ± 5.3% |  | 42.05 ± 0.27% | 2.31 ± 0.48%
C1=Cc2cccc3cccc1c23 [Acenaphthylene] | 10.5 ± 4.6% | 2.28 ± 8% |  |  |  |  | 3.51 ± 0.93%

The next lines start with the values.

chemical recovery by SPE of plasma ([1]; equilibration time (d): 3) | chemical recovery by SPE of plasma ([1]; equilibration time (d): 6) | chemical recovery [2, 3] | chemical recovery by SPE of plasma ([1]; equilibration time (d): 1) | chemical recovery [2, 4] | chemical recovery [2, 5] | chemical recovery [2, 6] | SMILES
28.5 ± 9.3% | 33.9 ± 4.1% |  |  |  |  |  | CCc1cccc(C)c1N(C(=O)CS(=O)(=O)O)[C@@H](C)C(=O)O
40.4 ± 2% | 40.3 ± 9.3% | 42.9 ± 4.2% | 37.4 ± 8.2% |  |  |  | CCc1cccc(C)c1NC(=O)CS(=O)(=O)O
38.9 ± 4.6% | 33.6 ± 9.2% | 35.7 ± 5.6% |  | 78.6 ± 6.2% |  |  | CO/N=C(/C(=O)O)c1ccccc1CO/N=C(\C)c1cccc(C(F)(F)F)c1
3.98 ± 3.6% | 4.03 ± 4.2% | 3.93 ± 4.5% | 2.28 ± 2% |  |  | 3.53 ± 1.7% | CCCCn1cc[n+](C)c1 [1-Butyl-3-methyl-imidazolium]
42.3 ± 0.92% | 39.9 ± 5.4% | 46 ± 4.3% | 31.8 ± 4.8% | 88.4 ± 4.2% |  | 61.2 ± 20% | O=S(=O)(O)c1nc2ccccc2s1 [2-Benzothiazolesulfonic acid]
47.9 ± 0.58% | 45 ± 6.4% | 44.7 ± 5.6% |  | 74.1 ± 3.9% |  | 61.3 ± 20% | O=S(=O)(O)c1cccc2ccc(O)cc12 [2-Naphthol-8-sulfonic acid]
17 ± 1.5% | 11.3 ± 1.4% |  | 11 ± 0.85% |  |  |  | CC(C)(C)c1ccc(S(N)(=O)=O)cc1 [4-tert-Butylbenzenesulfonamide]
69.9 ± 7.5% |  | 48.4 ± 4.8% |  | 71 ± 2.8% | 45.5 ± 5.2% | 44.9 ± 4.7% | NC(=O)N1c2ccccc2C(O)C(O)c2ccccc21 (stereo not given) [10,11-Dihydro-10,11-dihydroxycarbamazepine]
1.86 ± 0.99% | 8.53 ± 4.2% |  |  | 93.4 ± 4.7% | 11.2 ± 1.4% | 19.4 ± 5.8% | CC1=CC(=O)NS(=O)(=O)O1 [Acesulfame]
51.4 ± 3.5% | 49.3 ± 6.2% | 51.5 ± 4.3% | 51.7 ± 7.1% | 72 ± 3.1% | 42.7 ± 3.9% | 37.2 ± 3.4% | CC(=O)Nc1ccc(S(=O)(=O)Nc2cc(C)on2)cc1 [Acetyl-sulfamethoxazole]
3.53 ± 0.36% | 2.28 ± 0.42% | 37.8 ± 5.9% | 5.86 ± 0.39% | 59.7 ± 5.1% | 3.61 ± 0.98% | 35.7 ± 3.7% | CCCSc1ccc2[nH]c(NC(=O)OC)nc2c1 [Albendazole]
